{
  "source": "patent US5663296A",
  "about": "“Hydroxamate inhibitors of endothelin converting enzyme” (Warner-Lambert Company, priority 1995, dated 1997)",
  "key": {"[1]": {"molecular_target": "T1, endothelin converting enzyme (ECE) (Homo sapiens, UniProt P42892)", "T1 sequence (P42892 1-770)": "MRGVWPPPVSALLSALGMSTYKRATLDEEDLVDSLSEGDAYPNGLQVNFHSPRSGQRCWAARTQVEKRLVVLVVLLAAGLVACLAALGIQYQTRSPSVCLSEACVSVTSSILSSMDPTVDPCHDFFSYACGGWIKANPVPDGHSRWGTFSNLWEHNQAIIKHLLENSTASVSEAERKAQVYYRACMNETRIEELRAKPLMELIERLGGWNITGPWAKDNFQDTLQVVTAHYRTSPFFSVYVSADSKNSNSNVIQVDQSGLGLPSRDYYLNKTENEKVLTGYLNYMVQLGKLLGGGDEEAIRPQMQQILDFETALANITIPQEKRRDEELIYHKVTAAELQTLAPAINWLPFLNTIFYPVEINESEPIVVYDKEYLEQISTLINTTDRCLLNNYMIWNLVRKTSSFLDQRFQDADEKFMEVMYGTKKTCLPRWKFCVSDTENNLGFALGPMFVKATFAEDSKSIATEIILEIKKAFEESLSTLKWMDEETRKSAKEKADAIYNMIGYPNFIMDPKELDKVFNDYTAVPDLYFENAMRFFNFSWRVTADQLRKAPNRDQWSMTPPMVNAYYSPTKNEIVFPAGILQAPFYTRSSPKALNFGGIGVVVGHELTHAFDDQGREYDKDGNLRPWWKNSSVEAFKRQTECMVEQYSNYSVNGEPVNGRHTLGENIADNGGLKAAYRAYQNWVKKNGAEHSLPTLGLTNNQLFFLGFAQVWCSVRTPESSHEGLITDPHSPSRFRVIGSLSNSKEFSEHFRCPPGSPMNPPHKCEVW", "assay": "ECE activity assay, ir-ET-1 formed from big ET measured by radioimmunoassay", "type": "biochemical", "method": "ECE Activity Assay: The typical reaction mixture (50 μL) contained 10 μM big ET, 100 mM Hepes-KOH (pH 7.0), 0.25% Triton X-100, 0.01% NaN3, 0.2 mM phenylmethylsulfonyl fluoride, 50 μM pepstatin A, 0.1 mM leupeptin, the indicated concentration of compound (or DMSO for control), and the indicated amount of protein. The final DMSO concentration was kept at 3%. After incubation for 1.5 hours at 37° C., the reaction was stopped by the addition of EDTA to a final concentration of 10 mM. This final mixture was diluted (usually 100-fold) with the radioimmunoassay buffer (see below) and used for radioimmunoassay.\nRadioimmunoassay (RIA): For the measurement of immunoreactive (ir) ET-1, the assay mixture (250 μL) contained the antibody against ET-1, an ET-1 sample, and [^125 I]ET-1 (7000 cpm) in the radioimmunoassay buffer (60 mM potassium phosphate (KPi), pH 7.4/10 mM, EDTA/8 mM, NaN3 /3% DMSO/0.1% bovine serum albumin/0.1% Tween 20). The order of the addition was ET-1 sample, followed by antibody, then [^125 I]ET-1. After incubation at 4° C. for 0.5 to 2 days, unbound ET-1 was co-precipitated by the addition of charcoal (2.4%, w/v)/dextran (0.24%, w/v) suspension (125 μL) in the RIA buffer with BSA replacedby gelatin (0.25%, w/v). The amount of ir-ET-1 was measured by counting the supernatant and determined from the standard curve. The cross-reactivity to big ET-1 was less than 0.01% and the detection limit was 1 Fmol."}, "[2]": {"system": "cultured bovine aortic endothelial cells", "settings": "intracellular accumulation; cited from earlier work"}, "rats [3]": {"system": "rats", "settings": "cited from earlier work"}, "rats [4]": {"system": "rats", "settings": "cited from earlier work", "remark": "listed apart in the source"}, "allergic sheep": {"system": "allergic sheep", "settings": "cited from earlier work"}, "mouse": {"system": "mouse", "settings": "mouse model of endotoxic shock; cited from earlier work"}, "[5]": {"system": "cultured vascular endothelial cells and smooth muscle cells", "settings": "cited from earlier work"}, "[6]": {"system": "pressor response of big ET", "settings": "micromolar concentrations; in vitro and in vivo; cited from earlier work"}, "anaesthetized pigs": {"system": "anaesthetized pigs", "settings": "cited from earlier work"}},
  "note": "Counter-ions that a name gives are not always drawn. *1 amine or outer side, *2 acyl side, *3 side chain or, on linkers, in order; H or OH if unused. Where a SMILES comes first, the peptide text is derived from it. [ ]: non-standard residue; d: D form. The star is where a group is joined. Trp(1-formyl) = O=Cn1cc(C[C@H](N[*:1])C(=O)[*:2])c2ccccc21; Sta = CC(C)C[C@H](N)[C@@H](O)CC(=O)O; Suc = O=C(CCC(=O)[*:2])[*:1]; Isovaleryl = CC(C)CC(=O)*; Aun = NCCCCCCCCCCC(=O)O; Boc = CC(C)(C)OC(=O)*; NHOH = ON*",
  "data": [
    {"compound": "CC[C@H](C)[C@H](NC(=O)CCC(=O)O)C(=O)N[C@H](C(=O)N[C@@H](Cc1c[nH]c2ccccc12)C(=O)NO)[C@@H](C)CC", "note": "[Example 10] (Suc-Ile-Ile-Trp-{NHOH})", "values": [
      {"measurement": "IC50", "setting": "[1]; read-out: IC50 (ECE inhibition)", "result": 4.7, "unit": "µM"}
    ]},
    {"compound": "CC(C)CC(=O)N[C@H](C(=O)N[C@H](C(=O)N[C@@H](CC(C)C)[C@@H](O)CC(=O)N[C@@H](C)C(=O)N[C@@H](CC(C)C)[C@@H](O)CC(=O)O)C(C)C)C(C)C", "note": "[pepstatin] (Isovaleryl-VV[Sta]A[Sta]-OH)", "values": [
      {"measurement": "ET-1 production", "setting": "[2]", "result": "did not inhibit ET-1 production"}
    ]},
    {"compound": "N-[(1,1-dimethyl-ethoxy) carbonyl]-L-isoleucyl-N-hydroxy-L-tryptophanamide [Example 4]", "values": [
      {"measurement": "% ECE Inhibition", "setting": "[1]; Conc. 100 μM", "result": 44, "unit": "%"}
    ]},
    {"compound": "COc1cccc(Oc2c(NS(=O)(=O)c3ccc(C(C)(C)C)cc3)ncnc2OCCO)c1", "note": "[RO 46-2005]", "values": [
      {"measurement": "efficacy in subarachnoid hemorrhage model", "setting": "rats [3]", "result": "effective"},
      {"measurement": "efficacy in acute renal ischemia model", "setting": "rats [4]", "result": "effective"}
    ]},
    {"compound": "CC(C)C[C@@H]1NC(=O)[C@@H](C(C)C)NC(=O)[C@@H]2CCCN2C(=O)[C@@H](CC(=O)O)NC(=O)[C@@H](Cc2c[nH]c3ccccc23)NC1=O", "note": "[BQ-123] (cyclo(L[dW][dD]P[dV]))", "values": [
      {"measurement": "ET-1-induced bronchoconstriction and tracheal smooth muscle contraction", "setting": "allergic sheep", "result": "block ET-1-induced bronchoconstriction and tracheal smooth muscle contraction"},
      {"measurement": "survival rate", "setting": "mouse", "result": "significantly increased the survival rate"}
    ]},
    {"compound": "N-[(1,1-dimethylethoxy)-carbonyl]-L-α-aspartyl-L-isoleucyl-n-isoleucyl-1-formyl-N-hydroxy-n-tryptophanamide (Boc-DII[Trp(1-formyl)]-{NHOH}; not fully specified; printed as N-[(1,1-dimethylethoxy)-carbonyl]-L-α-aspartyl-L-isoleucyl-n-isoleucyl-1-formyl-N-hydroxy-n-tryptophanamide) [Example 22]", "values": [
      {"measurement": "% ECE Inhibition", "setting": "[1]; Conc. 10 μM", "result": 53, "unit": "%"},
      {"measurement": "% ECE Inhibition", "setting": "[1]; Conc. 40 μM", "result": 73, "unit": "%"},
      {"measurement": "% ECE Inhibition", "setting": "[1]; Conc. 100 μM", "result": 87, "unit": "%"}
    ]},
    {"compound": "CC(C)C[C@H](NP(=O)(O)O[C@@H]1O[C@@H](C)[C@H](O)[C@@H](O)[C@H]1O)C(=O)N[C@@H](Cc1c[nH]c2ccccc12)C(=O)O", "note": "[phosphoramidon]", "values": [
      {"measurement": "intracellular conversion of big ET-1 to ET-1", "setting": "[5]", "result": "inhibit the intracellular conversion of big ET-1 to ET-1"},
      {"measurement": "pressor response of big ET", "setting": "[6]", "result": "block the pressor response of big ET"},
      {"measurement": "plasma ET-1 level", "setting": "anaesthetized pigs", "result": "did not have any effect"},
      {"measurement": "vasoconstrictor effects evoked by intravenous big ET-1", "setting": "anaesthetized pigs", "result": "inhibit vasoconstrictor effects"}
    ]},
    {"compound": "CC[C@H](C)[C@H](NC(=O)CCCCCCCCCCN)C(=O)N[C@H](C(=O)N[C@@H](Cc1c[nH]c2ccccc12)C(=O)NO)[C@@H](C)CC", "note": "[Example 13] (H-[Aun]IIW-{NHOH})", "values": [
      {"measurement": "inhibition at 10 µM", "setting": "[1]; read-out: % ECE Inhibition", "result": 22, "unit": "%"},
      {"measurement": "inhibition at 50 µM", "setting": "[1]; read-out: % ECE Inhibition", "result": 57, "unit": "%"}
    ]},
    {"compound": "CC[C@H](C)[C@H](NC(=O)OC(C)(C)C)C(=O)N[C@H](C(=O)N[C@@H](Cc1c[nH]c2ccccc12)C(=O)NO)[C@@H](C)CC", "note": "[Example 2, N-[(1,1-dimethylethoxy)carbonyl]-L-isoleucyl-L-isoleucyl-N-hydroxy-L-tryptophanamide] (Boc-Ile-Ile-Trp-{NHOH})", "values": [
      {"measurement": "inhibition at 100 µM", "setting": "[1]; read-out: % ECE Inhibition", "result": 47, "unit": "%"}
    ]},
    {"compound": "CC[C@H](C)[C@H](NC(=O)CCCCCCCCCCN)C(=O)N[C@H](C(=O)N[C@@H](Cc1c[nH]c2ccccc12)C(=O)NOCc1ccccc1)[C@@H](C)CC", "note": "[Example 12]", "values": [
      {"measurement": "inhibition at 100 µM", "setting": "[1]; read-out: % ECE Inhibition", "result": 65, "unit": "%"}
    ]},
    {"compound": "CC[C@H](C)[C@H](N)C(=O)N[C@H](C(=O)N[C@@H](Cc1c[nH]c2ccccc12)C(=O)NO)[C@@H](C)CC", "note": "[Example 6, L-isoleucyl-L--isoleucyl-N-hydroxy-L-tryptophanamide, monohydrochloride] (H-Ile-Ile-Trp-{NHOH})", "values": [
      {"measurement": "inhibition at 100 µM", "setting": "[1]; read-out: % ECE Inhibition", "result": 74, "unit": "%"}
    ]},
    {"compound": "N-[(1,1-dimethyl-ethoxy) carbonyl]-L-isoleucyl-L-isoleuyl-N-hydroxy-D-tryptophanamide [Example 3]", "values": [
      {"measurement": "% ECE Inhibition", "setting": "[1]; Conc. 100 μM", "result": 46, "unit": "%"}
    ]}
  ]
}
